Source: patent US6436627B1, “Gene encoding an invertebrate α1 calcium channel subunit” (The Research Foundation of State University of New York, priority 1995, dated 2002)

What was measured:
Format in all cases: cell-based
[1] = target: T1, Drosophila Dmca1D calcium channel (L23RDD2 α1 + α2−δ + β) (Drosophila melanogaster, UniProt Q24270, A1391P/C1440T/D1375E/D1388K/D1403I/D1421E/D1422S/D1433P/DEL1408-1416/DEL1426-1431/E1379S/E1381Q/E1419P/E1434Y/E1435P/E1441G/G1404N/H1387E/H1396E/I1402K/INS1389RKKLARTA/INS1394[…]/L1420N/M1439T/P1386E/P1400T/Q1392E/Q1417L/R1437P/S1378T/S1395G/T1399P/V1380A/V1436N); assay: Calcium channel currents in Xenopus oocytes expressing Drosophila L23RDD2 α1 with α2-δ and β subunits; details: 2 μM BayK8644, Solution 2, BAPTA preinjection
T1 construct: rabbit cardiac α1C subunit amino acids 790-874 (85 aa insert replacing the fly II-III loop segment); expressed in transfected cells; host or cells: Xenopus oocytes injected with cRNA
T1 sequence (P13806 27-960, stated change not applied): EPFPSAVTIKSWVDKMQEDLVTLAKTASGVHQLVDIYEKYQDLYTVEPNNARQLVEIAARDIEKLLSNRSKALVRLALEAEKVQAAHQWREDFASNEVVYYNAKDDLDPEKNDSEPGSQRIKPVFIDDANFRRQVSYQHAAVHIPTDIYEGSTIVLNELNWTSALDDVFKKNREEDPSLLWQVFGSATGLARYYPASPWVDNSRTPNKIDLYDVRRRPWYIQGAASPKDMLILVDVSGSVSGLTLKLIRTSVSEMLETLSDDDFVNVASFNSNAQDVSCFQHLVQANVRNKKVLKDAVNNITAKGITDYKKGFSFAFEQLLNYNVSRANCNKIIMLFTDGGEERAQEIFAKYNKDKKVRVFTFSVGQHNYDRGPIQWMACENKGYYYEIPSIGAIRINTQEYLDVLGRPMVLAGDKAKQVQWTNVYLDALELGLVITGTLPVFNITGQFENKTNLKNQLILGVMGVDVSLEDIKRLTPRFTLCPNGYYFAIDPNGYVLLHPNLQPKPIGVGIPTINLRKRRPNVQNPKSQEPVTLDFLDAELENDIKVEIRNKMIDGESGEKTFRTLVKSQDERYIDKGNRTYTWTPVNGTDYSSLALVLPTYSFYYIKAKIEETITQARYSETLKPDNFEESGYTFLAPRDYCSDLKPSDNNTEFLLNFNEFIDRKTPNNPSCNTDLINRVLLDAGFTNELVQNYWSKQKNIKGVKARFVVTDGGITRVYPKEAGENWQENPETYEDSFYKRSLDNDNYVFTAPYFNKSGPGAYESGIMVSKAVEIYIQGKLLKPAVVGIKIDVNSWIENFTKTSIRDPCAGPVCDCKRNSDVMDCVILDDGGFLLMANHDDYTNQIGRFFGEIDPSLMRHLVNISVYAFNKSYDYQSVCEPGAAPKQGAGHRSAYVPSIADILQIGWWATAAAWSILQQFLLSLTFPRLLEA
T1 sequence (P13806 961-1106, stated change not applied): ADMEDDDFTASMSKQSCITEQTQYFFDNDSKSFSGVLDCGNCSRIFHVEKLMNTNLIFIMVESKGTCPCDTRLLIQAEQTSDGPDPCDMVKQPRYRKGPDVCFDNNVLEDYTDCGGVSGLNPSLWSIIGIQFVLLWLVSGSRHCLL
T1 sequence (Q24270 other isoform, or with tags, fused parts or gaps with the stated changes): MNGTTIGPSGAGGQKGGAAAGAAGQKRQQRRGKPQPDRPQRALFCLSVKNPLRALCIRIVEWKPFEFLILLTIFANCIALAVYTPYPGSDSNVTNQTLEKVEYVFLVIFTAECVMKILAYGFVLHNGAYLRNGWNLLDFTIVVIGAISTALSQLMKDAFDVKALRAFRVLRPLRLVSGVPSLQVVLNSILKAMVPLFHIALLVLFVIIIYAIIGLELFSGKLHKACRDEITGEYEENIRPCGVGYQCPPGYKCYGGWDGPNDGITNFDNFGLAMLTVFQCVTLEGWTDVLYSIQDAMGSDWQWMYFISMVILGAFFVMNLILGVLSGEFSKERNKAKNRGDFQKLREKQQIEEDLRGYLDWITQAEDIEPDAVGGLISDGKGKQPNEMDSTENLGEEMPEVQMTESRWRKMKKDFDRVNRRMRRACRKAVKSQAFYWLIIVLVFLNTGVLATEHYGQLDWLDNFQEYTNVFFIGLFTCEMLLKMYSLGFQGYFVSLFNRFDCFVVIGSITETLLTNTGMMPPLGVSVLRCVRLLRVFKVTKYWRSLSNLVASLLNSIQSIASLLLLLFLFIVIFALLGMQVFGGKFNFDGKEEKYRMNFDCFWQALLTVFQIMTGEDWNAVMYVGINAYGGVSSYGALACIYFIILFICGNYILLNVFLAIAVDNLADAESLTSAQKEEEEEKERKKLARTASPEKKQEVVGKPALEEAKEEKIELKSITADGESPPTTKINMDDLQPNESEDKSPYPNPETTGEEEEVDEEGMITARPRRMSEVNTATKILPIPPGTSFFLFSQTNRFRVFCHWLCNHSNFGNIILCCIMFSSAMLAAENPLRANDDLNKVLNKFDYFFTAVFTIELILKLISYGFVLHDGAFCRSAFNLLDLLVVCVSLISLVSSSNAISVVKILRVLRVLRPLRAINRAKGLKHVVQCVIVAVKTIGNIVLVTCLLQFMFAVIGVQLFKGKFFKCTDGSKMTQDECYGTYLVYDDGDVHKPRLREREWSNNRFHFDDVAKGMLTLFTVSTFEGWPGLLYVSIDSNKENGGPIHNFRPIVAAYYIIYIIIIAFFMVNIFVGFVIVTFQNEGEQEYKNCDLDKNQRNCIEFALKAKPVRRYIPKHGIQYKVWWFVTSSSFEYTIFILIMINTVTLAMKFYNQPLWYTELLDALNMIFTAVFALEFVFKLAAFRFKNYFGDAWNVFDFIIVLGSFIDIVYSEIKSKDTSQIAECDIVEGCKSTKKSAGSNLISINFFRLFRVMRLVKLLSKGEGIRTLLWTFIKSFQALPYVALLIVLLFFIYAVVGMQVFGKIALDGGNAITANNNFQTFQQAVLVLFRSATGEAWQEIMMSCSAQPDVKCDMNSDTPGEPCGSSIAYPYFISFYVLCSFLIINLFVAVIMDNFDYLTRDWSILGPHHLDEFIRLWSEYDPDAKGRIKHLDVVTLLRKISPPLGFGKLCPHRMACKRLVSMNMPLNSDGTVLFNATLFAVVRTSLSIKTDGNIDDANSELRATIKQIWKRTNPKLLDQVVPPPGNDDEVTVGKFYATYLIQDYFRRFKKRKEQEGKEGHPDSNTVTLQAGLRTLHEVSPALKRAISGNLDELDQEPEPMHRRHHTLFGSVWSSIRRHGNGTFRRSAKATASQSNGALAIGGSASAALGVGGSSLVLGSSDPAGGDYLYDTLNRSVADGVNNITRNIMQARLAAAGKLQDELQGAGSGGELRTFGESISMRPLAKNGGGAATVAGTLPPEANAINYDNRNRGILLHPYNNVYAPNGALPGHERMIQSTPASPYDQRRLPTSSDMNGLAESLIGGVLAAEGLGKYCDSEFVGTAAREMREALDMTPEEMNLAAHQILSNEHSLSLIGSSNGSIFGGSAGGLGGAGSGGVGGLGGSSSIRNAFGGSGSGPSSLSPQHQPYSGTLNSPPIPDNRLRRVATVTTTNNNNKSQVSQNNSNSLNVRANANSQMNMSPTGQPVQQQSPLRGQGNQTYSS
Excerpt: (§1) Construct L23RDD2 in the pAGA2 vector (Wei et al. (1991) J. Biol. Chem. 266:21943-21947) encodes the Drosophila DmcalD calcium channel α1 subunit. The coding sequence begins with the fifth methionine in the published sequence (Zheng et al. (1995) J. Neurosci. 15:1132-1143). A part of the II-III cytoplasmic loop (amino acids […] in Zheng et al. (1995) J. Neurosci. 15:1132-1143) has been replaced with 85 amino acids from the rabbit cardiac α1C subunit (amino acids 790-874, Wei et al. 1991, supra ). The α2−δ subunit used in these studies is MXTα2−δ. This is an EcoRI fragment from the rabbit skeletal muscle α2−δ subunit described by Mikami et al. ((1989) Nature340:230-233) subcloned into the Xenopus oocyte expression vector pBScMXT (from L. Salkoff, Washington, St Louis). The Drosophila beta subunit clone used was β-DN2CI in oocyte expression vector pAGA2. This beta subunit isoform contains both conserved domains and the N2 form of form of the amino terminus. The rabbit cardiac α1C subunit clone (Wei et al. 1991, supra) (in the pAGA2 vector) was CardΔN60 in which the first 60 amino acids on the N terminus were deleted to enhance expression.
(§2) Injection mixtures were prepared in 1 mM Tris pH7.0 and 50 nl was injected into each oocyte. For studies of the Drosophila L23RDD2 channel αl subunit the concentrations of the “undiluted” cocktail in ng/ul were: 300 αl, 150 α2−δ, 83 β. For studies of the rabbit cardiac αl subunit the concentrations of the “undiluted” cocktail in ng/μl were: 12 α1, 6.6 α2−δ, 3.6 β. Oocytes were incubated at 18° C. in ND96 plus supplements (Goldin (1992) Methods Enz. 207:266-279) (changed daily) until recording.
(§3) Two different recording solutions were used. Solution 1 consisted of (in mM): 40 Ba(OH)2, 50 NaOH, 2 KOH, 1 niflumic acid, 0.1 EGTA, 5 HEPES, adjusted to pH 7.4 with methanesulfonic acid (Pragnell et al. (1994) Nature 368:67-70). Solution 2 was used for some experiments and consisted of (in mM): 40 Ba(OH)2, 52 TEA, 5 HEPES, adjusted to pH 7.4 with methanesulfonic acid (Yang et al. (1993) Nature 366:158-161). […]
(§4) FIG. 20 summarizes a dose response curve for the dihydropyridine antagonist nifedipine using oocytes expressing CRNA (in ng/ul): 150 L23RDD2 α1, 75 α2−δ, and 41.5 β. Each point represents 3 to 9 oocytes recorded in Solution 1. […] This compares well with the nifedipine sensitivity determined for this calcium channel in Drosophila larval muscle where 10 μM nifedipine blocks 80% of the current associated with the Dmca1D current (Gielow et al. (1995) J. Neurosci. 15:6085-6093). […] Thus, the Xenopus oocyte expression system is ready for use in testing compounds active against this calcium channel in insects. […]

[2] = target: T2, rabbit cardiac calcium channel (α1CΔN60 + α2−δ + β) (Oryctolagus cuniculus, UniProt P15381); assay: Calcium channel currents in Xenopus oocytes expressing the rabbit cardiac α1C subunit with α2-δ and β subunits; details: 2 μM BayK8644, Solution 2, BAPTA preinjection
T2 construct: expressed in transfected cells; host or cells: Xenopus oocytes injected with cRNA
Excerpt: We completed an analysis of 14 different chimeras to identify the region which was preventing expression of the Drosophila Dmca1D calcium channel currents in Xenopus oocytes. As a result of that analysis we defined a short region of 67 amino acids in the cytoplasmic loop between repeats II and III that was causing the difficulty (see FIG. 11). When an 85 amino acid segment from the rabbit cardiac α1 C subunit was substituted in place of this 67 amino acid Drosophila sequence, we were able to reproducibly generate small calcium channel currents using barium as the charge carrier. In this Example, and in the experiments described in the Examples below, we used a combination of subunit cRNAs. […] When control experiments were run using rabbit cardiac calcium channels, the same auxiliary subunits were used and the rabbit αlCΔN60 subunit was used in place of the Drosophila L23RDD2 α1 chimera.
Construct L23RDD2 in the pAGA2 vector (Wei et al. (1991) J. Biol. Chem. 266:21943-21947) encodes the Drosophila DmcalD calcium channel α1 subunit. The coding sequence begins with the fifth methionine in the published sequence (Zheng et al. (1995) J. Neurosci. 15:1132-1143). A part of the II-III cytoplasmic loop (amino acids 1222-1228 in Zheng et al. (1995) J. Neurosci. 15:1132-1143) has been replaced with 85 amino acids from the rabbit cardiac α1C subunit (amino acids 790-874, Wei et al. 1991, supra ). […]

[3] = target: T3, Drosophila Dmca1D calcium channel (L23RDD2 α1 + α2−δ + β) (Drosophila melanogaster, UniProt Q24270, A1391P/C1440T/D1375E/D1388K/D1403I/D1421E/D1422S/D1433P/DEL1408-1416/DEL1426-1431/E1379S/E1381Q/E1419P/E1434Y/E1435P/E1441G/G1404N/H1387E/H1396E/I1402K/INS1389RKKLARTA/INS1394QEVVGKPALEEAKEEKIELKSITAD/L1420N/M1439T/P1386E/P1400T/Q1392E/Q1417L/R1437P/S1378T/S1395G/T1399P/V1380A/V1436N); assay: Calcium channel currents in Xenopus oocytes expressing Drosophila L23RDD2 α1 with α2-δ and β subunits
T3 construct: rabbit cardiac α1C subunit amino acids 790-874 (85 aa insert replacing the fly II-III loop segment); expressed in transfected cells; host or cells: Xenopus oocytes injected with cRNA
T3 sequence (P13806 27-960, stated change not applied): as the sequence (P13806 27-960, stated change not applied) above
T3 sequence (P13806 961-1106, stated change not applied): as the sequence (P13806 961-1106, stated change not applied) above
T3 sequence (Q24270 other isoform, or with tags, fused parts or gaps with the stated changes): as the sequence (Q24270 other isoform, or with tags, fused parts or gaps with the stated changes) above
Excerpt: as §1, §2, §3, §4

Compound | Effect of BayK on the channel current (in words) [1] | Effect on tail current kinetics in the presence of BayK (in words) [1] | Peak current in the presence of BayK ([1]; same oocyte without BayK 1548.5 nA) [nA] | Effect of BayK on the channel current (in words) [2] | Peak current in the presence of BayK ([2]; same oocyte without BayK 488.2 nA) [nA] | EC50 [3] [µM]
COC(=O)C1=C(C)NC(C)=C([N+](=O)[O-])C1c1ccccc1C(F)(F)F (stereo not drawn) [BayK8644] | no stimulation | no obvious change in kinetics | 1208.1 | increase in the peak current and slowing of the tail currents | 1673.7 | –
COC(=O)C1=C(C)NC(C)=C(C(=O)OC)C1c1ccccc1[N+](=O)[O-] [nifedipine] | – | – | – | – | – | ~3
